Results as given in patent US11684067B2, “Generation of peroxyformic acid through polyhydric alcohol formate” (priority 2014, dated 2023).
Where “and” joins values, the source holds several entries; their conditions need not be identical. Equal entries are not always repeated.

Columns and labels:
[1] = tested on: Nalidixic acid resistant E. coli O157:H7; assay: Reduction of E. coli on raw beef brisket, dip treatment; type: cell-based; details: 10 minutes dip, ambient, 220 ppm POAA / 180 ppm PFA / 50 ppm LAS per formula (Table 15)
Procedure: Nalidixic acid resistant E. coli O157:H7 was used to evaluate the efficacy in treatment with performic acid composition on raw beef brisket according to the conditions shown in Table 14.
The generation of PFA from the perhydrolysis of glycerol formates, PFA formulations, POAA formations and controls were evaluated as shown in Table 15.

[2] = tested on: Aspergillus brasiliensis ATCC 16404; assay: Fungicidal activity of ester PFA, dirty conditions (Example 20); type: cell-based; details: 5 minutes
Source text: Various Bacillus and Aspergillus pathogens were used to evaluate the micro efficacy of ester PFA generated according to methods of the present invention.

[3] = tested on: Bacillus subitilisATCC 19659; assay: Sporicidal activity of ester PFA versus POAA (Example 23); type: cell-based, Bacillus subtilis; details: 20°C, dirty
Source text: Additional Bacillus pathogens were used to evaluate the micro efficacy of ester PFA generated according to methods of the present invention in comparison to POAA.

[4] = cited from earlier work
[5] = tested on: Candida albicans ATCC 10231; assay: Fungicidal/yeasticidal activity of ester PFA versus POAA (Example 22); type: cell-based; details: for Average CFU/mL / Log10 Growth / Log10 Reduction: 20°C, dirty
Source text: (§1) Canidia and Aspergillus pathogens were used to evaluate the micro efficacy of ester PFA generated according to methods of the present invention in comparison to POAA.

[6] = tested on: Aspergillus brasiliensis ATCC 16404; assay: as above; type: cell-based; details: for Average CFU/mL / Log10 Growth / Log10 Reduction: 20°C, dirty
Source text: as §1

[7] = 300 ppm PFA pH 6.73 / 368 ppm POAA pH 6.88, 5 minutes
[8] = 300 ppm PFA pH 6.73 / 368 ppm POAA pH 6.88, 10 minutes
[9] = 400 ppm PFA pH 6.95 / 490 ppm POAA pH 6.65, 5 minutes
[10] = 400 ppm PFA pH 6.95 / 490 ppm POAA pH 6.65, 10 minutes
[11] = 200 ppm PFA pH 6.15 / 245 ppm POAA pH 6.56, 5 minutes
[12] = 200 ppm PFA pH 6.15 / 245 ppm POAA pH 6.56, 10 minutes
[13] = 200 ppm PFA pH 6.15 / 245 ppm POAA pH 6.56, 15 minutes
[14] = 300 ppm PFA pH 6.21 / 368 ppm POAA pH 6.63, 5 minutes
[15] = 300 ppm PFA pH 6.21 / 368 ppm POAA pH 6.63, 10 minutes

Question: With `O=COO` [PFA, peroxyformic acid] as the compound, how does the “Average Log CFU/cm2” value [1] read?
Answer: 3.22 Log CFU/cm2

Question: What about the “Log reduction” value [1] of the same compound?
Answer: 0.83 Log

Question: And the CFU/cm2 ([1]; single samples)?
Answer: 1.84E+03 CFU/cm2 and 1.42E+03 CFU/cm2 and 1.72E+03 CFU/cm2

Question: What about the CFU/ml ([1]; single samples) of the same compound?
Answer: 9.20E+02 CFU/ml and 7.10E+02 CFU/ml and 8.60E+02 CFU/ml

Question: And the “Log CFU/cm2” value ([1]; single samples)?
Answer: 3.26 Log CFU/cm2 and 3.15 Log CFU/cm2 and 3.24 Log CFU/cm2

Question: What about the “Log10 Growth” value ([2]; 200 ppm PFA pH 5.81, 35°C) of the same compound?
Answer: >4.22 Log10

Question: And the “Log10 Reduction” value ([2]; 200 ppm PFA pH 5.81, 35°C)?
Answer: <1.89 Log10

Question: And the “Log10 Growth” value ([2]; 250 ppm PFA pH 5.82, 35°C)?
Answer: 3.55 Log10

Question: And the “Log10 Reduction” value ([2]; 250 ppm PFA pH 5.82, 35°C)?
Answer: 2.56 Log10

Question: What about the “Log10 Growth” value ([2]; 300 ppm PFA pH 5.91, 35°C) of the same compound?
Answer: 3.38 Log10

Question: And the “Log10 Reduction” value ([2]; 300 ppm PFA pH 5.91, 35°C)?
Answer: 2.73 Log10

Question: And the “Log10 Growth” value ([2]; 350 ppm PFA pH 5.88, 35°C)?
Answer: 3.46 Log10

Question: And the “Log10 Reduction” value ([2]; 350 ppm PFA pH 5.88, 35°C)?
Answer: 2.65 Log10

Question: And the “Average CFU/mL” value [3, 7]?
Answer: >3.0E+05 CFU/mL

Question: And the “Log10 Growth” value [3, 7]?
Answer: >5.48 Log10

Question: And the “Log10 Reduction” value [3, 7]?
Answer: <2.26 Log10

Question: What about the “Average CFU/mL” value [3, 8] of the same compound?
Answer: 1.28E+05 CFU/mL

Question: What about the “Log10 Growth” value [3, 8] of the same compound?
Answer: 5.11 Log10

Question: What about the “Log10 Reduction” value [3, 8] of the same compound?
Answer: 2.63 Log10

Question: And the “Average CFU/mL” value [3, 9]?
Answer: >3.0E+05 CFU/mL

Question: What about the “Log10 Growth” value [3, 9] of the same compound?
Answer: >5.48 Log10

Question: And the “Log10 Reduction” value [3, 9]?
Answer: <2.26 Log10

Question: What about the “Average CFU/mL” value [3, 10] of the same compound?
Answer: 7.50E+04 CFU/mL

Question: And the “Log10 Growth” value [3, 10]?
Answer: 4.88 Log10

Question: And the “Log10 Reduction” value [3, 10]?
Answer: 2.86 Log10

Question: What about the pKa value [4] of the same compound?
Answer: 7.2

Question: What about the “reduction in C. albicans compared with POAA” value ([5]; 5, 10 and 15 minutes, lower actives, FIG. 18) of the same compound?
Answer: equivalent reduction

Question: What about the “Average CFU/mL” value [5, 11] of the same compound?
Answer: <140 CFU/mL

Question: And the “Log10 Growth” value [5, 11]?
Answer: <2.15 Log10

Question: And the “Log10 Reduction” value [5, 11]?
Answer: >4.14 Log10

Question: What about the “Average CFU/mL” value [5, 12] of the same compound?
Answer: <140 CFU/mL

Question: What about the “Log10 Growth” value [5, 12] of the same compound?
Answer: <2.15 Log10

Question: And the “Log10 Reduction” value [5, 12]?
Answer: >4.14 Log10

Question: What about the “Average CFU/mL” value [5, 13] of the same compound?
Answer: <140 CFU/mL

Question: And the “Log10 Growth” value [5, 13]?
Answer: <2.15 Log10

Question: And the “Log10 Reduction” value [5, 13]?
Answer: >4.14 Log10

Question: And the “Average CFU/mL” value [5, 14]?
Answer: <140 CFU/mL

Question: And the “Log10 Growth” value [5, 14]?
Answer: <2.15 Log10

Question: What about the “Log10 Reduction” value [5, 14] of the same compound?
Answer: >4.14 Log10

Question: And the “Average CFU/mL” value [5, 15]?
Answer: <140 CFU/mL

Question: And the “Log10 Growth” value [5, 15]?
Answer: <2.15 Log10

Question: And the “Log10 Reduction” value [5, 15]?
Answer: >4.14 Log10

Question: And the “reduction in A. brasiliensis conidio spores compared with POAA” value ([6]; 5, 10 and 15 minutes, lower actives, FIG. 19)?
Answer: improved reduction

Question: What about the “Average CFU/mL” value [6, 11] of the same compound?
Answer: 1.60E+04 CFU/mL

Question: And the “Log10 Growth” value [6, 11]?
Answer: 4.20 Log10

Question: What about the “Log10 Reduction” value [6, 11] of the same compound?
Answer: 1.54 Log10

Question: What about the “Average CFU/mL” value [6, 12] of the same compound?
Answer: 1.75E+03 CFU/mL

Question: And the “Log10 Growth” value [6, 12]?
Answer: 3.24 Log10

Question: What about the “Log10 Reduction” value [6, 12] of the same compound?
Answer: 2.50 Log10

Question: And the “Average CFU/mL” value [6, 13]?
Answer: 3.85E+02 CFU/mL

Question: And the “Log10 Growth” value [6, 13]?
Answer: 2.59 Log10

Question: And the “Log10 Reduction” value [6, 13]?
Answer: 3.16 Log10

Question: And the “Average CFU/mL” value [6, 14]?
Answer: 4.10E+02 CFU/mL

Question: And the “Log10 Growth” value [6, 14]?
Answer: 2.61 Log10

Question: And the “Log10 Reduction” value [6, 14]?
Answer: 3.13 Log10

Question: And the “Average CFU/mL” value [6, 15]?
Answer: 1.20E+02 CFU/mL

Question: And the “Log10 Growth” value [6, 15]?
Answer: 2.08 Log10

Question: And the “Log10 Reduction” value [6, 15]?
Answer: 3.67 Log10
